Converted amounts (≈) assume the structure as drawn.
How the values were obtained:
[1] = tested on: Staphylococcus epidermidis; test: Antibacterial activity against Staphylococcus epidermidis assessed as reduction in microbial growth after 24 hrs by CLSI based microdilution method; format: functional
[2] = tested on: Staphylococcus aureus; test: Antibacterial activity against methicillin-resistant Staphylococcus aureus assessed as reduction in microbial growth by CLSI based broth microdilution method; format: functional
[3] = tested on: Staphylococcus epidermidis; test: Antibacterial activity against Methicillin-resistant Staphylococcus epidermidis assessed as bacterial growth inhibition; format: functional
[4] = tested on: Staphylococcus epidermidis; test: Antibacterial activity against linezolid-resistant Staphylococcus epidermidis assessed as reduction in bacterial growth; format: functional
[5] = tested on: Staphylococcus aureus; test: Antibacterial activity against Linezolid-resistant Staphylococcus aureus assessed as reduction in bacterial growth; format: functional
[6] = tested on: Staphylococcus aureus; test: Antibacterial activity against Staphylococcus aureus assessed as reduction in microbial growth by CLSI based broth microdilution method; format: functional
[7] = tested on: L02; test: Antiproliferative activity against human L02 cells assessed as inhibition of cell growth incubated for 24 hrs by MTT assay; format: functional, cell-based; conditions: L02, 24 h
[8] = tested on: SK-OV-3; test: Antiproliferative activity against human SK-OV-3 cells assessed as reduction in cell viability incubated for 24 hrs by CCK8 assay; format: functional, cell-based; conditions: SK-OV-3, 24 h
[9] = tested on: MGC-803; test: Antiproliferative activity against human MGC-803 cells assessed as reduction in cell growth by MTT assay; format: functional, cell-based
[10] = tested on: NCI-H460; test: Antiproliferative activity against human NCI-H460 cells assessed as inhibition of cell growth by MTT assay; format: functional, cell-based
[11] = tested on: Staphylococcus aureus; test: Antibacterial activity against Staphylococcus aureus assessed as reduction in bacterial growth incubated for 24 hrs by broth microdilution method; format: functional
[12] = tested on: Escherichia coli; test: Antibacterial activity against efflux pump-efficient Escherichia coli MG1655 assessed as bacterial growth inhibition; format: functional
[13] = tested on: Escherichia coli; test: Antimicrobial activity against wild type Escherichia coli MG1655 assessed as inhibition of microbial growth; format: functional
[14] = tested on: Escherichia coli; test: Antibacterial activity against Escherichia coli MG1655 in presence of polymyxin B nonapeptide; format: functional

| IC50 [8] | IC50 [9] | IC50 [10] | SMILES | IC50 [7] | further results |
| --- | --- | --- | --- | --- | --- |
| – | – | – | COC(=O)C1(C(=O)OC)Cc2cc(-c3ccc(N4C[C@H](CNC(C)=O)OC4=O)cc3F)ccc2N2CCOCC21 (stereo partly drawn) | – | MIC [1]: 4 µg/mL; MIC [2]: 4 µg/mL; MIC [3]: 4 µg/mL (≈ 7.2 µM); MIC [4]: 32 µg/mL (≈ 57.6 µM); MIC [5]: > 32 µg/mL; MIC [6]: 8 µg/mL |
| ≥ 14.9 µM | 7.1 µM | ≥ 15.6 µM | CC(C)c1ccc2c(c1)CCC1[C@](C)(C(=O)OCC(O)CNc3cccc(Cl)c3)CCC[C@]21C (stereo partly drawn) | ≥ 28.3 µM | – |
| – | – | – | O=C1O[C@@H](CO)CN1c1ccc(-c2cc(O)ccc2F)c(F)c1 | – | MIC [11]: 2 µg/mL (≈ 6.23 µM); MIC [12]: 16 µg/mL (≈ 49.8 µM); MIC [13]: > 256 µg/mL; MIC [14]: 16 µg/mL |
| ≥ 4.1 µM | 3.82 µM | ≥ 4.3 µM | COc1ccc(N2CC(COC(=O)[C@]3(C)CCC[C@]4(C)c5ccc(C(C)C)cc5CCC34)OC2=O)cc1 (stereo partly drawn) | ≥ 26.4 µM | – |
| ≥ 14.9 µM | 7.1 µM | ≥ 15.6 µM | COc1cccc(NCC(O)COC(=O)[C@]2(C)CCC[C@]3(C)c4ccc(C(C)C)cc4CCC23)c1 (stereo partly drawn) | ≥ 28.3 µM | – |
| ≥ 14.9 µM | 7.1 µM | ≥ 15.6 µM | CC(C)c1ccc2c(c1)CCC1[C@](C)(C(=O)OCC(O)CNc3ccc(Cl)cc3)CCC[C@]21C (stereo partly drawn) | ≥ 28.3 µM | – |
| ≥ 14.9 µM | 7.1 µM | ≥ 15.6 µM | CC(C)c1ccc2c(c1)CCC1[C@](C)(C(=O)OCC(O)CNc3cccc(F)c3)CCC[C@]21C (stereo partly drawn) | ≥ 28.3 µM | – |
| – | – | – | O=C1O[C@@H](CO)CN1c1ccc(-c2cccc(O)c2F)c(F)c1 | – | MIC [11]: 2 µg/mL (≈ 6.23 µM); MIC [12]: 32 µg/mL (≈ 99.6 µM); MIC [13]: > 256 µg/mL; MIC [14]: 32 µg/mL |
| – | – | – | NCc1ccc(-c2ccc(N3C[C@H](CO)OC3=O)cc2F)cc1O | – | MIC [11]: 2.8 µg/mL (≈ 8.43 µM); MIC [12]: 8 µg/mL (≈ 24.1 µM); MIC [13]: 84 µg/mL; MIC [14]: 32 µg/mL |
| – | – | – | N#Cc1ccc(O)cc1-c1ccc(N2C[C@H](CO)OC2=O)cc1F | – | MIC [11]: 32 µg/mL (≈ 97.5 µM); MIC [12]: 64 µg/mL (≈ 195 µM); MIC [13]: > 256 µg/mL; MIC [14]: 128 µg/mL |
| ≥ 4.1 µM | 3.82 µM | ≥ 4.3 µM | COc1cccc(N2CC(COC(=O)[C@]3(C)CCC[C@]4(C)c5ccc(C(C)C)cc5CCC34)OC2=O)c1 (stereo partly drawn) | ≥ 26.4 µM | – |
| ≥ 4.1 µM | 3.82 µM | ≥ 4.3 µM | CC(C)c1ccc2c(c1)CCC1[C@](C)(C(=O)OCC3CN(c4ccc(F)cc4)C(=O)O3)CCC[C@]21C (stereo partly drawn) | ≥ 26.4 µM | – |
| – | – | – | NCc1ncc(-c2ccc(N3C[C@H](CO)OC3=O)cc2F)cc1O | – | MIC [11]: 20 µg/mL (≈ 60 µM); MIC [12]: 32 µg/mL (≈ 96 µM); MIC [13]: 51 µg/mL; MIC [14]: 32 µg/mL |
| ≥ 14.9 µM | 7.1 µM | ≥ 15.6 µM | C#Cc1cccc(NCC(O)COC(=O)[C@]2(C)CCC[C@]3(C)c4ccc(C(C)C)cc4CCC23)c1 (stereo partly drawn) | ≥ 28.3 µM | – |
| ≥ 4.1 µM | 3.82 µM | ≥ 4.3 µM | CC(C)c1ccc2c(c1)CCC1[C@](C)(C(=O)OCC3CN(c4ccc(Br)cc4)C(=O)O3)CCC[C@]21C (stereo partly drawn) | ≥ 26.4 µM | – |
| ≥ 14.9 µM | 7.1 µM | ≥ 15.6 µM | CC(C)c1ccc2c(c1)CCC1[C@](C)(C(=O)OCC(O)CNc3ccc(F)cc3)CCC[C@]21C (stereo partly drawn) | ≥ 28.3 µM | – |
| ≥ 4.1 µM | 3.82 µM | ≥ 4.3 µM | CC(C)c1ccc2c(c1)CCC1[C@](C)(C(=O)OCC3CN(c4cccc(Cl)c4)C(=O)O3)CCC[C@]21C (stereo partly drawn) | ≥ 26.4 µM | – |
| ≥ 14.9 µM | 7.1 µM | ≥ 15.6 µM | CC(C)c1ccc2c(c1)CCC1[C@](C)(C(=O)OCC(O)CNc3ccc(Br)cc3)CCC[C@]21C (stereo partly drawn) | ≥ 28.3 µM | – |
| ≥ 4.1 µM | 3.82 µM | ≥ 4.3 µM | CC(C)c1ccc2c(c1)CCC1[C@](C)(C(=O)OCC3CN(c4cccc(Br)c4)C(=O)O3)CCC[C@]21C (stereo partly drawn) | ≥ 26.4 µM | – |
| – | – | – | Nc1ccc(-c2ccc(N3C[C@H](CO)OC3=O)cc2F)cc1O | – | MIC [11]: 4 µg/mL (≈ 12.6 µM); MIC [12]: 32 µg/mL (≈ 101 µM); MIC [13]: > 64 µg/mL; MIC [14]: 32 µg/mL |
| – | – | – | Nc1cc(-c2ccc(N3C[C@H](CO)OC3=O)cc2F)ccc1O | – | MIC [11]: 4 µg/mL (≈ 12.6 µM); MIC [12]: 16 µg/mL (≈ 50.3 µM); MIC [13]: > 64 µg/mL; MIC [14]: 64 µg/mL |
| ≥ 4.1 µM | 3.82 µM | ≥ 4.3 µM | CC(C)c1ccc2c(c1)CCC1[C@](C)(C(=O)OCC3CN(c4cccc(F)c4)C(=O)O3)CCC[C@]21C (stereo partly drawn) | ≥ 26.4 µM | – |
| ≥ 4.1 µM | 3.82 µM | ≥ 4.3 µM | C#Cc1cccc(N2CC(COC(=O)[C@]3(C)CCC[C@]4(C)c5ccc(C(C)C)cc5CCC34)OC2=O)c1 (stereo partly drawn) | ≥ 26.4 µM | – |
| ≥ 4.1 µM | 3.82 µM | ≥ 4.3 µM | CC(C)c1ccc2c(c1)CCC1[C@](C)(C(=O)OCC3CN(c4ccc(Cl)cc4)C(=O)O3)CCC[C@]21C (stereo partly drawn) | ≥ 26.4 µM | – |

Reference: ChEMBL document CHEMBL5550106, “Recent advances in the exploration of oxazolidinone scaffolds from compound development to antibacterial agents and other bioactivities” (Eur J Med Chem, 2024)
